From PMC10394516, “The pharmacokinetic profile of brensocatib and its effect on pharmacodynamic biomarkers including NE, PR3, and CatG in various rodent species” (Frontiers in Pharmacology, 2023)

Legend:
[1] = system: NE; test: PD onset study, bone marrow NE activity, C57BL/6 mice; type: in vivo; conditions: for Percent change from vehicle NE: bone marrow, 5 mg/kg BID oral
Procedure: (§1) A 14-day PD onset study was performed in female C57BL/6 mice dosed BID. Mice were dosed by oral gavage either with vehicle (0 mg/kg) or 5 mg/kg brensocatib (BID; 10 mg/kg/day) for 1, 4, 7, 10, or 14 consecutive days. Plasma was collected from animals during the first 24 h of dosing at 1, 2, 8, 9, 10, and 24 h post the initial dose. Note the 8- and 24-h plasma samples were prior to the afternoon dose and the second day dose (if applicable), respectively. Plasma was used for PK analysis via LC-MS/MS. On prescribed days, animals were sacrificed 16 h post final dose, and the hind bones (femurs and tibias) were collected at necropsy for bone marrow analysis of NSP activities by kinetic enzymatic assays.
(§2) For the mice, each animal had the femurs and tibias of both hind limbs harvested. For the rat, the femur and tibia from a single hind limb per animal was harvested. Bones were kept on wet ice until processing for bone marrow collection. In brief, bone cutters were used to cut the epiphysis (knobby ends) off the long bones to expose the bone marrow filled cavity. Each bone cavity was then flushed with 5 mL/bone (mouse) or 10 mL/bone (rat) of ice-cold RPMI media through a […] and collected in a 50-mL conical tube. Cells were spun down at 2,500 × g at 4°C for 5 min and the supernatant was aspirated. After which, bone marrow cells were lysed with 1X red blood cell (RBC) lysis buffer (Abcam, ab204733) to eliminate contaminating RBCs and washed with PBS to remove any residual RBC lysis buffer. The resulting white blood cells (WBC) were subsequently lysed with 1% (v/v) Triton X-100 in PBS. Lysates were added to 96-well plates and stored at −80°C until NSP analyses.
(§3) Bone marrow lysates prepared as described above were diluted and plated onto 96-well assay plates to quantify NSP activities as described previously ([Basso et al., 2022]). Briefly, peptide substrates for NE (N-Methoxysuccinyl-Ala-Ala-Pro-Val-7-amido-4-methylcoumarin; Sigma; St. Louis, MO; Excitation/Emission at 350/450 nm), PR3 ((7-Methoxycoumarin-4-yl)acetyl-lysyl-(picolinoyl)-Tyr-Asp-Ala-Lys-Gly-Asp-N-3-(2-4-dinitrophenyl)-2-3-diaminopropyonyl-NH2); GenScript; Piscataway, NJ; Excitation/Emission at 340/430 nm), and CatG (N-Succinyl-Ala-Ala-Pro-Phe p nitroanilide; Sigma; Absorbance at 405 nm) were added at a final assay concentration of 100 μM, 40 μM, and 200 μM, respectively, and either fluorescence or absorbance was quantified using a Synergy microplate reader (BioTek; Winooski, VT). The specific NSP activity in each sample was calculated as the total activity minus the activity in the presence of a specific NSP inhibitor (if used), including elastase inhibitor (Abcam) for NE, sivelestat (Abcam) for PR3, and cathepsin G inhibitor I (Cayman Chemical; Ann Arbor, MI) for CatG. NSP concentrations were interpolated based on their activities relative to the standard curves created using active human NE protein (Sigma), active human PR3 protein (Sigma), and active human CatG protein (Sigma), respectively. Due to unavailability of commercial mouse and/or rat NE, PR3, and CatG proteins, the corresponding human proteins were used instead since their catalytic ability is considered to be conserved across species. A portion of each cell lysate sample was retained for protein quantification using a Pierce™ BCA Protein Assay Kit (Thermo Fisher). The NSP activities were normalized for the cell lysate protein concentrations.
(§4) The Pierce™ BCA Protein Assay Kit was used to measure the total protein of the samples after lysis to allow for subsequent normalization. The manufacturer’s instructions for use were followed when performing this assay on a portion of the sample lysates which were diluted in PBS, the same diluent as used for preparation of the standard. Plates were read on the Biotek Synergy plate reader with Gen5 software.

[2] = system: CatG; test: PD onset study, bone marrow CatG activity, C57BL/6 mice; type: in vivo; conditions: for Percent change from vehicle CatG: bone marrow, 5 mg/kg BID oral
Procedure: as §1, §2, §3, §4

[3] = system: NE; set-up: method as in Chalmers et al., 2020; conditions: Phase 2 trial in NCFBE (WILLOW, NCT03218917), vs placebo; ref Chalmers et al., 2020; cited from earlier work
[4] = system: NE; test: PD recovery study, bone marrow NE activity, C57BL/6 mice; type: in vivo; conditions: for Percent change from vehicle NE: bone marrow
Procedure: A PD recovery study was performed in female C57BL/6 mice dosed BID for 8 consecutive days. Mice were dosed by oral gavage either with vehicle (0 mg/kg) or 5 mg/kg brensocatib (BID; 10 mg/kg/day). After 8 consecutive days of dosing, the animals were maintained without further treatment until prescribed sacrifice (days: 1, 3, 6, 8, and 10 days post final dose). Plasma was collected from animals during the first 24 h of dosing at −0.5 (half-hour prior to dosing), 1, 8, 9, and 24 h post initial dose. Note that the 8- and 24-h plasma samples were prior to the afternoon dose and prior to the second day dose, respectively. Plasma was used for PK analysis via LC-MS/MS. On prescribed days, animals were sacrificed, and the hind limb bones (femurs and tibias) were collected at necropsy for bone marrow analysis of NSP activities by kinetic enzymatic assays.
as §2, §3, §4

[5] = 5 mg/kg BID, curve fit with free min and max
[6] = after 8 days of 5 mg/kg BID, curve fit with free min and max

Cn1c(=O)oc2ccc(-c3ccc(C[C@@H](C#N)NC(=O)[C@@H]4CNCCCO4)cc3)cc21 [brensocatib]
Onset: Maximum reduction (plateau), NE [1, 5]: 80% | Onset: Time to reach 50% reduction, NE [1, 5]: 4.3 days | Onset: Time to reach max reduction, NE [1, 5]: 6.4 days | Percent change from vehicle NE ([1]; after 1 day of treatment): −28% (p = 0.0826) | Percent change from vehicle NE ([1]; after 4 days of treatment): −59% (p < 0.0001) | Percent change from vehicle NE ([1]; after 7 days of treatment): −83% (p < 0.0001) | Percent change from vehicle NE ([1]; after 10 days of treatment): −76% (p < 0.0001) | Percent change from vehicle NE ([1]; after 14 days of treatment): −82% (p < 0.0001) | Onset: Maximum reduction (plateau), CatG [2, 5]: 97% | Onset: Time to reach 50% reduction, CatG [2, 5]: 2.8 days | Onset: Time to reach max reduction, CatG [2, 5]: 8.1 days | Percent change from vehicle CatG ([2]; after 1 day of treatment): −26% (0.0727) | Percent change from vehicle CatG ([2]; after 4 days of treatment): −81% (p < 0.0001) | Percent change from vehicle CatG ([2]; after 7 days of treatment): −99% (p < 0.0001) | Percent change from vehicle CatG ([2]; after 10 days of treatment): −93% (p < 0.0001) | Percent change from vehicle CatG ([2]; after 14 days of treatment): −99% (p < 0.0001) | sputum NE activity [3]: dose-dependent reduction | Recovery: Time to reach 50% recovery, NE [4, 6]: 0.8 days | Recovery: Time to reach 90% recovery, NE [4, 6]: 4.9 days | Recovery: Time to reach 95% recovery, NE [4, 6]: 5.6 days | Recovery: Time to reach 100% recovery, NE [4, 6]: 6.6 days | Percent change from vehicle NE ([4]; 1 day recovery after 8 days of 5 mg/kg BID): −49% (p < 0.0001) | Percent change from vehicle NE ([4]; 3 days recovery after 8 days of 5 mg/kg BID): −4% (p = 0.9544) | Percent change from vehicle NE ([4]; 6 days recovery after 8 days of 5 mg/kg BID): −20% (p = 0.0067) | Percent change from vehicle NE ([4]; 8 days recovery after 8 days of 5 mg/kg BID): −2% (p = 0.9986) | Percent change from vehicle NE ([4]; 10 days recovery after 8 days of 5 mg/kg BID): +15% (p = 0.0607)
